{
  "source": "patent US20050197338A1",
  "about": "“Substituted pyrazole urea compounds for the treatment of inflammation” (priority 2003, published 2005)",
  "data": [
    {"molecular_target": "T1, human IKK-2 (rhIKK-2 homodimer) (Homo sapiens, UniProt O14920)", "T1 construct": "FLAG (DYKDDDDKD) (C); made in house; host or cells: insect cells (baculovirus, pFastBac)", "T1 sequence (O14920 1-756)": "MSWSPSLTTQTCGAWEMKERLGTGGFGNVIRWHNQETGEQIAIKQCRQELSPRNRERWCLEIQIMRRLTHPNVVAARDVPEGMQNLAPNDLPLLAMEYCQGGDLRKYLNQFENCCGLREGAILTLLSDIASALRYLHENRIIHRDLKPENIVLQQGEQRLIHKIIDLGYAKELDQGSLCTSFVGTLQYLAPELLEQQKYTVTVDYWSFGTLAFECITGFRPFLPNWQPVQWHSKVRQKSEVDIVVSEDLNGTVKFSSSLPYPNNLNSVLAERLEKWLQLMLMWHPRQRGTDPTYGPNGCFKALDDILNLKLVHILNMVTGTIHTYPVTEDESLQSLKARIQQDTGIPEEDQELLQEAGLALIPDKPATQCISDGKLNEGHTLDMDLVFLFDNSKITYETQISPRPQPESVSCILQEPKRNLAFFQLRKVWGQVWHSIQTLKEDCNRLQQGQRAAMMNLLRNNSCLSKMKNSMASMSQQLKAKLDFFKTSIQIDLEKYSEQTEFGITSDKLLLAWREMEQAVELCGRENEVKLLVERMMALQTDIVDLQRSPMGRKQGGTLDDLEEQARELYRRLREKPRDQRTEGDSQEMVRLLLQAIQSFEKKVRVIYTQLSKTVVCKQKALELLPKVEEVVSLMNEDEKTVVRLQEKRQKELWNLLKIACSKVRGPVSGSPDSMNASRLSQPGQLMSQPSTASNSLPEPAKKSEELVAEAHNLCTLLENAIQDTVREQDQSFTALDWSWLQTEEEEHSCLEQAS", "assay": "IKK-2 Resin Enzyme Assay (Human IKK-2 Enzyme Assay)", "format": "biochemical", "settings": "human IKK-2, resin enzyme assay; read-out: IC50 (μM) hIKK-2", "outline": "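C-terminally FLAG-tagged human IKK-2 homodimer, baculovirus-expressed in insect cells and anti-FLAG purified. Reaction mix: 5 μM biotinylated IκBα peptide (Ser32/Ser36 region), 1 μM ATP with [γ-33P]ATP, 2 mM MgCl2, 2 mM MnCl2, 10 mM NaF, 1 mM DTT, 25 mM HEPES pH 7.6. Incubated 30 min at 25 °C; IC50 derived.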", "units": {"IC50": "µM"}, "values": [
      {"smiles": "Cc1noc(C)c1-c1cccc(-n2cc(NC(N)=O)c(C(N)=O)n2)c1", "note": "[Example 70, 4-[(aminocarbonyl)amino]-1-[3-(3,5-dimethylisoxazol-4-yl)phenyl]-1H-pyrazole-3-carboxamide]", "IC50": 0.88},
      {"smiles": "CNC(=O)COc1ccc(F)cc1-c1ccc(-n2cc(NC(N)=O)c(C(N)=O)n2)cc1", "note": "[Example 256, 4-[(aminocarbonyl)amino]-1-{5′-fluoro-2′-[2-(methylamino)-2-oxoethoxy]-1,1′-biphenyl-4-yl}-1H-pyrazole-3-carboxamide]", "IC50": 1.07},
      {"smiles": "CNC(=O)COc1cccc(-c2ccc(-n3cc(NC(N)=O)c(C(N)=O)n3)cc2)c1", "note": "[Example 383, 4-[(aminocarbonyl)amino]-1-{3′-[2-(methylamino)-2-oxoethoxy]-1,1′-biphenyl-4-yl}-1H-pyrazole-3-carboxamide]", "IC50": 0.07},
      {"smiles": "NC(=O)Nc1cn(-c2cccc(-c3cc(F)cc(F)c3)c2)nc1C(N)=O", "note": "[Example 350, 4-[(aminocarbonyl)amino]-1-(3′,5′-difluoro-1,1′-biphenyl-3-yl)-1H-pyrazole-3-carboxamide]", "IC50": "> 20"},
      {"smiles": "NC(=O)Nc1cn(-c2ccc([S+]([O-])C3CCCC3)cc2)nc1C(N)=O", "note": "(stereo not shown) [Example 283, 1-(3-carbamoyl-1-(4-(cyclopentylsulfinyl)phenyl)-1H-pyrazol-4-yl)urea]", "IC50": 0.431},
      {"smiles": "CCCNC(=O)c1ccc(-c2ccc(-n3cc(NC(N)=O)c(C(N)=O)n3)cc2)cc1", "note": "[Example 146, 4-[(aminocarbonyl)amino]-1-{4′-[(propylamino)carbonyl]-1,1′-biphenyl-4-yl}-1H-pyrazole-3-carboxamide]", "IC50": 6.28},
      {"smiles": "NC(=O)Nc1cn(-c2ccc(-c3cc(F)ccc3OCc3ncco3)cc2)nc1C(N)=O", "note": "[Example 255, 4-[(aminocarbonyl)amino]-1-[5′-fluoro-2′-(1,3-oxazol-2-ylmethoxy)-1,1′-biphenyl-4-yl]-1H-pyrazole-3-carboxamide]", "IC50": 0.762},
      {"smiles": "NC(=O)Nc1cn(-c2cccc(-c3ccccc3CO)c2)nc1C(N)=O", "note": "[Example 87]", "IC50": 1.52},
      {"smiles": "N#CCOc1ccccc1-c1ccc(-n2cc(NC(N)=O)c(C(N)=O)n2)c(F)c1", "note": "[Example 250, 4-[(aminocarbonyl)amino]-1-[2′-(cyanomethoxy)-3-fluoro-1,1′-biphenyl-4-yl]-1H-pyrazole-3-carboxamide]", "IC50": 0.279},
      {"smiles": "NC(=O)Nc1cn(-c2ccc(S(=O)(=O)c3ccc(F)cc3)c(Cl)c2)nc1C(N)=O", "note": "[Example 222, 4-[(aminocarbonyl)amino]-1-{3-chloro-4-[(4-fluorophenyl)sulfonyl]phenyl}-1H-pyrazole-3-carboxamide]", "IC50": "> 20"},
      {"smiles": "NC(=O)c1nn(-c2cccc(Br)c2)cc1NC(N)=S", "note": "[Example 12, 4-[(aminocarbonothioyl)amino]-1-(3-bromophenyl)-1H-pyrazole-3-carboxamide]", "IC50": 1.43},
      {"smiles": "CNC(=O)c1cccc(-c2cccc(-n3cc(NC(N)=O)c(C(N)=O)n3)c2)c1", "note": "[Example 83, 4-[(aminocarbonyl)amino]-1-{3′-[(methylamino)carbonyl]-1,1′-biphenyl-3-yl}-1H-pyrazole-3-carboxamide]", "IC50": 1.29},
      {"smiles": "CC(C)(C)OC(=O)COc1ccc(F)cc1-c1ccc(-n2cc(NC(N)=O)c(C(N)=O)n2)cc1", "note": "[Example 182, tert-butyl [(4′-{3-(aminocarbonyl)-4-[(aminocarbonyl)amino]-1H-pyrazol-1-yl}-5-fluoro-1,1′-biphenyl-2-yl)oxy]acetate]", "IC50": 11.2},
      {"smiles": "N#CCOc1cccc(-c2ccc(-n3cc(NC(N)=O)c(C(N)=O)n3)cc2F)c1", "note": "[Example 227, 4-[(aminocarbonyl)amino]-1-[3′-(cyanomethoxy)-2-fluoro-1,1′-biphenyl-4-yl]-1H-pyrazole-3-carboxamide]", "IC50": 1.53},
      {"smiles": "CC(C)c1cccc(-c2cccc(-n3cc(NC(N)=O)c(C(N)=O)n3)c2)c1", "note": "[Example 352, 4-[(aminocarbonyl)amino]-1-(3′-isopropyl-1,1′-biphenyl-3-yl)-1H-pyrazole-3-carboxamide]", "IC50": "> 20"},
      {"smiles": "CCNC(=O)COc1cccc(-c2ccc(-n3cc(NC(N)=O)c(C(N)=O)n3)cc2)c1", "note": "[Example 335, 4-[(aminocarbonyl)amino]-1-{3′-[2-(ethylamino)-2-oxoethoxy]-1, 1′-biphenyl-4-yl}-1H-pyrazole-3-carboxamide]", "IC50": 0.21},
      {"smiles": "CC(C)c1ccc(-c2ccc(-n3cc(C(N)=O)c(NC(N)=O)n3)cc2)cc1", "note": "[Example 117]", "IC50": "> 20"},
      {"smiles": "NC(=O)Nc1cn(-c2ccc(SC3CCCC3)cc2)nc1C(N)=O", "note": "[Example 207, 1-(3-carbamoyl-1-(4-(cyclopentylthio)phenyl)-1H-pyrazol-4-yl)urea]", "IC50": 1.32},
      {"smiles": "NC(=O)Nc1cn(-c2cccc(-c3cncnc3)c2)nc1C(N)=O", "note": "[Example 66, 4-[(aminocarbonyl)amino]-1-(3-pyrimidin-5-ylphenyl)-1H-pyrazole-3-carboxamide]", "IC50": 5.2},
      {"smiles": "NC(=O)Nc1cn(-c2ccc(S(=O)(=O)c3ccc(F)cc3)cc2Cl)nc1C(N)=O", "note": "[Example 377, 1-(1-(4-(4-fluorophenylsulfonyl)-2-chlorophenyl)-3-carbamoyl-1H-pyrazol-4-yl)urea]", "IC50": 0.113},
      {"smiles": "NC(=O)Nc1cn(-c2cccc(-c3ccc(C(=O)NC4CC4)cc3)c2)nc1C(N)=O", "note": "[Example 80, 4-[(aminocarbonyl)amino]-1-{4′-[(cyclopropylamino)carbonyl]-1,1′-biphenyl-3-yl}-1H-pyrazole-3-carboxamide]", "IC50": 0.6},
      {"smiles": "N#CCCNC(=O)c1cccc(-c2cccc(-n3cc(NC(N)=O)c(C(N)=O)n3)c2)c1", "note": "[Example 82, 4-[(aminocarbonyl)amino]-1-(3′-{[(2-cyanoethyl)amino]carbonyl}-1,1′-biphenyl-3-yl)-1H-pyrazole-3-carboxamide]", "IC50": 1.19},
      {"smiles": "N#CCOc1ccccc1-c1ccc(-n2cc(NC(N)=O)c(C(N)=O)n2)cc1C(F)(F)F", "note": "[Example 238, 4-[(aminocarbonyl)amino]-1-[2′-(cyanomethoxy)-2-(trifluoromethyl)-1,1′-biphenyl-4-yl]-1H-pyrazole-3-carboxamide]", "IC50": 1.11},
      {"smiles": "NC(=O)Nc1cn(-c2ccc(Sc3cccc(F)c3)cc2)nc1C(N)=O", "note": "[Example 197, 1-(1-(4-(3-fluorophenylthio)phenyl)-3-carbamoyl-1H-pyrazol-4-yl)urea]", "IC50": 0.561},
      {"smiles": "NC(=O)Nc1cn(-c2ccc(-c3cccc(CO)c3)cc2)nc1C(N)=O", "note": "[Example 39, 4-[(aminocarbonyl)amino]-1-[3′-(hydroxymethyl)-1,1′-biphenyl-4-yl]-1H-pyrazole-3-carboxamide]", "IC50": 1.34},
      {"smiles": "Cc1cc(-n2cc(NC(N)=O)c(C(N)=O)n2)ccc1-c1ccc(F)cc1O", "note": "[Example 241, 1-(4′-Fluoro-2′-hydroxy-2-methyl-biphenyl-4-yl)-4-ureido-1H-pyrazole-3-carboxylic acid amide]", "IC50": 1.68},
      {"smiles": "CC(=O)OCc1cccc(-c2ccc(-n3cc(NC(N)=O)c(C(N)=O)n3)cc2)c1", "note": "[Example 165, 4′-{3-(aminocarbonyl)-4-[(aminocarbonyl)amino]-1H-pyrazol-1-yl}-1,1′-biphenyl-3-yl)methyl acetate]", "IC50": 5.99},
      {"smiles": "CC(=O)c1ccc(-c2cccc(-n3cc(NC(N)=O)c(C(N)=O)n3)c2)cc1", "note": "[Example 53, 1-(4′-acetyl-1,1′-biphenyl-3-yl)-4-[(aminocarbonyl)amino]-1H-pyrazole-3-carboxamide]", "IC50": 4.07},
      {"smiles": "NC(=O)Nc1cn(-c2ccc(Sc3ccccc3F)c(Cl)c2)nc1C(N)=O", "note": "[Example 270, 4-[(aminocarbonyl)amino]-1-{3-chloro-4-[(2-fluorophenyl)thio]phenyl}-1H-pyrazole-3-carboxamide]", "IC50": 3.7},
      {"smiles": "NC(=O)Nc1cn(-c2ccc(-c3cccc(C(=O)O)c3)cc2)nc1C(N)=O", "note": "[Example 96, 4′-{3-(aminocarbonyl)-4-[(aminocarbonyl)amino]-1H-pyrazol-1-yl}-1,1′-biphenyl-3-carboxylic acid]", "IC50": 1.45},
      {"smiles": "NC(=O)Nc1cn(-c2ccc(-c3cccc(OCC(=O)O)c3)cc2)nc1C(N)=O", "note": "[Example 258, [(4′-{3-(aminocarbonyl)-4-[(aminocarbonyl)amino]-1H-pyrazol-1-yl}-1,1′-biphenyl-3-yl)oxy]acetic acid]", "IC50": 1.02},
      {"smiles": "NC(=O)Nc1cn(-c2ccc(-c3ccc(F)cc3O)c(F)c2)nc1C(N)=O", "note": "[Example 262, 4-[(aminocarbonyl)amino]-1-(2,4′-difluoro-2′-hydroxy-1,1′-biphenyl-4-yl)-1H-pyrazole-3-carboxamide]", "IC50": 0.842},
      {"smiles": "CSc1ccccc1-c1cccc(-n2cc(NC(N)=O)c(C(N)=O)n2)c1", "note": "[Example 356, 4-[(aminocarbonyl)amino]-1-[2′-(methylthio)-1,1′-biphenyl-3-yl]-1H-pyrazole-3-carboxamide]", "IC50": "> 20"},
      {"smiles": "Cc1cccc(-c2ccc(-n3cc(NC(N)=O)c(C(N)=O)n3)cc2)c1", "note": "[Example 102, 4-[(aminocarbonyl)amino]-1-(3′-methyl-1,1′-biphenyl-4-yl)-1H-pyrazole-3-carboxamide]", "IC50": 2.82}
    ]}
  ]
}
